Results from patent US20240216339A1, “METHODS OF TREATING NEUROPSYCHIATRIC DISORDERS” (GILGAMESH PHARMACEUTICALS, INC., priority 2021, published 2024).

Key:
[1] = system: patients with major depressive disorder (MDD); settings: discontinued Phase II study; cited from earlier work
[2] = system: C57BL/6 mice; assay: Head twitch response (HTR) to 4-HO-MET after vehicle or daridorexant pre-treatment; type: in vivo, mouse; settings: 4-HO-MET 0.32-3.2 mg/kg s.c.; vehicle (0.5% methylcellulose) pretreatment; 20 min period; FIG. 5
Method: Administration of 5-HT2A receptor agonists in mice induces a robust head twitch response (HTR). The number of head twitches observed in mice is recognized as an indicator of the degree of psychedelic effects (Halberstadt et al 2020). To determine whether the HTR induced by 5-HT2A receptor agonists is modulated by dual orexin receptor antagonists, a study was performed comparing the HTR induced by a 5-HT2A receptor agonist, 4-hydroxy-N-methyl-N-ethyltryptamine (4-HO-MET), after pre-treatment with either vehicle or the dual orexin receptor antagonist daridorexant.
Male C57BL/6 mice (˜6-8 Week; Hylasco, Hyderabad, India) were pair-housed under standard conditions on a 12-h light cycle with free access to food and water. On the test day, mice were randomly assigned to one of 6 treatment groups (see Table 1 below). Mice were dosed orally with 0.5% methylcellulose or daridorexant at t=−30 min followed by a subcutaneous (s.c.) injection of 4-HO-MET (0.32, 1, or 3.2 mg/kg) at t=0 min. Mice were then immediately placed in a chamber and the number of head twitches in a 20 min period post 4-HO-MET injection (t=0-20 min) were counted manually by a blinded, trained observer.

[3] = system: sleep-wake behaviour in Sprague Dawley rats; assay: EEG/EMG sleep-wake study of daridorexant, psilocybin and their combination; type: in vivo, rat
Method: The aim of this study was to investigate the effects of daridorexant, psilocybin, and the combination of the two compounds, on sleep-wake behaviour in Sprague Dawley rats, across the circadian cycle. Daridorexant is a dual orexin receptor antagonist used for treating insomnia. Psilocybin is a 5-HT2A receptor agonist with psychedelic properties and relatively short half-life. The study was conducted at Transpharmation, UK, under Study IDs EEG079a and EEG079c.
8 male Sprague Dawley rats (Charles River, UK) were used in the study. Animals were housed in groups of 2-3 with standard conditions. Average weight at start of dosing was 433-517 g, corresponding to ˜ 14 weeks old.
The animals were anaesthetised with isoflurane (2-5% in oxygen at 1 L/min) throughout the procedure. The scalp, neck, and right flank were cleared of hair using clippers and cleaned using diluted Hibitane (50% (v/v) in water). A non-steroidal anti-inflammatory agent was administered (Carprofen 5 mg/kg, subcutaneously (s.c.)) and the animals placed on a homeothermic blanket (37° C.) with the head fixed in a stereotaxic frame. Incisions were made in the scalp and neck, as well as in the right flank. Blunt dissection of the abdominal muscle was then made to gain access to the peritoneal cavity. A radio transmitter (HD-S02, Data Sciences International) was implanted in the peritoneal cavity and secured to the muscle wall with non-absorbable sutures. The wires of the transmitter were passed using a 16 G needle through the muscle wall and then sub-dermally to the scalp to act as EEG/EMG electrodes. The scalp was cleared of connective tissue and two craniotomies were made with a trepanning drill (fronto-parietal coordinates; Bregma+2 mm anterior, midline+1.0 mm lateral, and Lambda 0 mm, +1.5 mm lateral). The positive EEG electrode was attached to the anterior craniotomy and the negative EEG electrode to the posterior craniotomy. Both electrodes were secured in place using a suitable adhesive agent (cyanoacrylate gel, RS components). A second set of electrodes were sutured into the nuchal muscle to act as EMG electrodes. All incisions were closed using absorbable suture.
All animals were allowed to recover in a warm environment and given 5 mL of saline s.c. Animals were kept singly in the cage until the next day, then pair housed for the duration of post-surgical recovery (minimum 7 days). During the recovery period the rats received 5 days of standard post-operative care with no further experimental procedures until the pre-operative body weight was regained. The animals were maintained on a 12/12 h light-dark cycle (08:00 am lights on) after the surgery.
On study days, at ˜30 min after lights-on, animals were placed in recording boxes similar to their home cages and data acquisition was begun for confirmation of signal quality. After 30 min, each animal was briefly removed from its box to be dosed (see schedule below). Animals were immediately put back into the recording boxes, the experimenter left the room, and recordings continued uninterrupted for ˜23 h. At the end of the recording session, the transmitters were turned off and the animals were returned to their home cages. Animals received treatment conditions in a pseudo randomised cross-over fashion with a minimum period of 7 days between doses.
Daridorexant was administered p.o. at a volume of 5 mL/kg with 0.5% methylcellulose vehicle (Vehicle 1), at doses of 30 mg/kg or 100 mg/kg. Psilocybin was administered s.c. at a volume of 3 mL/kg with saline vehicle (Vehicle 2), at doses of 0.5 mg/kg, 1 mg/kg, or 3 mg/kg.
EEG, EMG, and locomotor activity data were acquired for ˜23 h post dosing using intraperitoneal HD-S02 transmitters (DSI, New Brighton, MN) and Spike2 software (CED, Cambridge UK). EEG/EMG signals were amplified, analogue filtered (0.5-100 Hz), digitized (256 Hz), and then digitally filtered (EEG: 0.5-100 Hz and EMG: 70-100 Hz). […]

[4] = system: major depressive disorder (MDD); settings: cited from earlier work
[5] = system: individuals; settings: anecdotal; individuals who fell asleep while taking LSD; more than 12 hours after the dose; cited from earlier work
[6] = first 4 h after dosing, daridorexant at both 30 and 100 mg/kg p.o., FIG. 1B

Cc1ccc(-c2ncccn2)c(C(=O)N2C[C@H](COc3ccc(F)cn3)CC[C@H]2C)c1 [filorexant]
separation from placebo in MDD [1]: did not separate from placebo

CCN(C)CCc1c[nH]c2cccc(O)c12 [4-HO-MET, 4-hydroxy-N-methyl-N-ethyltryptamine]
number of head twitches (HTR) [2]: produced HTR in a dose-dependent manner

COc1ccc(-n2nccn2)c(C(=O)N2CCC[C@@]2(C)c2nc3c(C)c(Cl)ccc3[nH]2)c1 [daridorexant]
percentage of time spent in Wake across 22 h ([3]; first 2 h after dosing, daridorexant alone 30, 100 mg/kg, FIG. 3A): wakefulness reduction
percentage of time spent in NREM across 22 h ([3]; first 2 h after dosing, daridorexant alone 30, 100 mg/kg, FIG. 3B): promotion of NREM and REM sleep
percentage of time spent in REM across 22 h ([3]; first 2 h after dosing, daridorexant alone 30, 100 mg/kg, FIG. 3C): promotion of NREM and REM sleep
percentage of time spent in Wake [3, 6]: acutely reduced wakefulness for the first 2 h after dosing
percentage of time spent in sleep (NREM, REM) [3, 6]: promoting sleep, especially NREM sleep
REM sleep onset latency ([3]; psilocybin 1, 3 mg/kg, daridorexant 30, 100 mg/kg, combinations D100+P1, D30+P1, FIG. 2A): dose-dependent decrease
NREM sleep onset latency ([3]; psilocybin 1, 3 mg/kg, daridorexant 30, 100 mg/kg, combinations D100+P1, D30+P1, FIG. 2B): reduction

Cc1cc(C)nc(N2CC3CN(C(=O)c4c(F)cccc4-n4nccn4)CC3C2)n1 (stereo not drawn) [seltorexant, Seltorexant]
(left posterior) EEG power ([4]; compared to placebo): overall increase
delta power during stage 2 sleep ([4]; compared to placebo): relative increase
theta, alpha, and beta power during stage 2 sleep ([4]; compared to placebo): decrease
antidepressant efficacy with continued treatment ([4]; continued treatment up to 28 days): maintained
core depressive symptoms compared to placebo ([4]; ten days of treatment, seen at day 11): significant improvement

CCN(CC)C(=O)[C@@H]1C=C2c3cccc4[nH]cc(c34)C[C@H]2N(C)C1 [LSD, lysergic acid diethylamide]
next day creativity and vigor [5]: next day enhanced creativity and vigor
